Article PMC5321741, “Arylmethylamino steroids as antiparasitic agents” (Nature Communications, 2017)
Values joined by “and” are separate entries in the source; they are usually repeats but may differ in a detail not shown here. Equal entries are not always repeated.

How the values were obtained:
[1] = system: haem; test: ESI-MS collision-induced dissociation of haem adducts; format: binding; conditions: 50 µM haem and 50 µM substrate; for DV50 (dissociation voltage at 50%) of haem adduct: ESI-CID, 20 V to 400 V; for Bottom plateau (adduct remaining at 400 V): fragmentor voltage 400 V
Procedure, shortened: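 Equimolar haem and substrate (50 µM each) in H2O/CH3CN 5/95 with 0.1% formic acid, analysed by positive-mode ESI-CID with fragmentor 20–400 V in 20 V steps. DV50 is the voltage giving 50% dissociation of [haematin-drug]+ adducts.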

[2] = system: K-562; test: antiproliferative activity on K-562 cells; format: cell-based; conditions: Homo sapiens, K562, 72 h
Procedure, shortened: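 K-562 and HeLa seeded at ∼10,000 cells/well; HeLa preincubated 48 h without compound before cytotoxicity testing. 72 h exposure at 37 °C, 5% CO2; K-562 counted by electronic cell analyzer, HUVEC and HeLa glutaraldehyde-fixed, methylene blue-stained, OD 660 nm; GI50 (antiproliferative) and CC50 (cytotoxicity) derived.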

[3] = system: hGrx1-roGFP2 in P. falciparum 3D7; test: cytosolic glutathione redox sensor in parasites; format: cell-based, Plasmodium falciparum; conditions: for oxidizing effect, change of 405/488 nm fluorescence ratio: 4 h
Procedure: To further study the mechanism of action of the steroid compounds and evaluate the potential involvement of redox stress, compound 1o was tested in cell culture on the chloroquine-sensitive P. falciparum 3D7 strain expressing the cytosolic glutathione redox sensor hGrx1-roGFP2 (Supplementary Note 2). […]
signals at 405/475 nm were calculated and plotted against time and/or concentration of compound 1o or redox active compounds. Data from three independent experiments were […]
100 µM for 4 h and 24 h incubations. Transfection of the Pf3D7 strain with the redox sensor was carried out, and the parasites were cultured as described under constant drug pressure with 5 nM WR99210 (Jacobus Pharmaceuticals, New Jersey, USA).45,46 P. falciparum trophozoites were enriched via magnet separation.47 Parasitemia was counted by using Giemsa-stained blood smears. The IC50 of compound 1o on P. falciparum 3D7 asexual blood stages was verified to be about 5 nM in an additional 72 h [3H] incorporation assay45 directly before the experiment. The effect of compound 1o on P. falciparum was investigated in 4 h and 24 h incubations. For 4 h experiments, trophozoite stage parasites (26-30 h post invasion) of 3D7[hGrx1-roGFP2] (6-8% parasitemia) were magnetically enriched (Miltenyi Biotec, Germany), counted by using the improved Neubauer hemocytometer (Brand GmbH, Germany), and returned to cell culture (at 0.5 x 10^6 trophozoites/µl) for at least 1 h to recover.
1.0 x 10^6 cells in 100 µl cell culture medium were placed into LoBind tubes (Eppendorf) for 4 h incubation experiments. The parasites were treated with compound 1o at 50 x, and 100 x IC and with mefloquine (MQ) as a standard antimalarial drug at 1 µM (IC = 8 nM)45 for 4 h […]
for 15 min at 37 °C. For 24 h experiments, a 5 ml culture (6-8% parasitemia) of ring stage parasites (6-10 h post invasion) was treated with compound 1o at 4 x, 10 x, 20 x IC50 and with 100 nM MQ. Prior to enrichment, cysteines were blocked with 2 mM NEM. For 4 h and 24 h experiments, cells were washed after incubation with pre-warmed Ringer’s solution […]
Hepes, 1 mM NaH2PO4, pH 7.4) and were seeded onto poly-L-lysine-coated µ-slides VI (Ibidi, Martinsried, Germany). A Leica confocal system TCS SP5 inverted microscope equipped with the objective HCX PL APO 63.0x1.30 GLYC 37 °C UV connected to a 37 °C temperature chamber was used. The argon laser power was set to 20%; scanning was performed at 400 Hz frequency and at a 512 × 512 pixel resolution. The smart gain and […]
smart offset were 950 V and -0.9%, respectively. With a sequential scan, we excited the sensor at 405 nm and at 488 nm and detected emissions at 500-550 nm. Laser intensity for both lines was adjusted to match the full dynamic range of the probe to the dynamic range of the detector (405 nm: 12%, 488 nm: 4%). Autofluorescence images were simultaneously taken at ex 405 nm / em 430-450 nm and individually defined together with the background for every image, but no fluorescence signal could be detected. All experiments included non- […]
and 10 mM DTT (2 min incubation), respectively, prior to blocking with NEM. Only parasites showing fluorescent signals at both 405 and 488 nm excitation and an intact host cell were chosen for analysis. Each experiment was carried out three times. At least 10 parasites were analyzed, resulting in at least 30 experimental values per incubation. The Leica LAS AF Lite software for fluorescence analysis was used. The 405/488 nm ratio was calculated. The obtained ratio values were normalized to the control ratio value, which was set to 100. The graphs were plotted using the GraphPad Prism 5 software (San Diego, CA, USA). One way-ANOVA test with 95% confidence intervals with the Dunnett’s Multiple Comparison Test was applied for statistical analysis of significance (*, p < 0.05; **, p < 0.01; ***, p < 0.001). […]
with 1 µM MQ. 24 h incubation (Supplementary Figure 8 panel B) with compound 1o resulted in a higher increase of the fluorescence ratio in a concentration-dependent manner. […]

SMILES | DV50 (dissociation voltage at 50%) of haem adduct [1] | Bottom plateau (adduct remaining at 400 V) [1] | GI50 [2] | change of 405/488 nm fluorescence ratio ([3]; 20 nM (4 x IC50), 24 h) | change of 405/488 nm fluorescence ratio ([3]; 100 nM, 24 h) | oxidizing effect, change of 405/488 nm fluorescence ratio ([3]; 250 nM (50 x IC50)) | oxidizing effect, change of 405/488 nm fluorescence ratio ([3]; 500 nM (100 x IC50)) | redox ratio of the probe ([3]; 20, 50 and 100 nM, 24 h, not significant)
COc1ccc2c(c1)CCC1C2CC[C@@]2(C)C1CC[C@H]2NCc1cc2ccccc2cc1O (some centres unmarked) [1o] | 290 V | ~ 20% and 20% | 5 µM | 1.8 fold | 2.4 fold | approximately 1.5 fold | approximately 1.5 fold | dose-dependent increase of the redox ratio of the probe
COc1ccc2c(c1)CCC1C2CC[C@@]2(C)C1CC[C@@H]2NCc1cc2ccccc2cc1O (some centres unmarked) [2o] | 280 V | 21.7% and ~ 20% | 2.5 µM | – | – | – | – | –
